In article PMC3667671 (Clinical pharmacology and therapeutics, 2012):
Where “and” joins values, the source holds several entries; their conditions need not be identical. Equal entries are not always repeated. Where two headings read alike, the source gives them in different places.

Key:
ABCC2 = ABCC2 (Homo sapiens, UniProt Q92887); experiment: Uptake of estradiol-17β-glucuronide into ABCC2-containing inside-out vesicles; type: biochemical
ABCB1 = ABCB1 (Homo sapiens, UniProt P08183); experiment: Calcein AM accumulation assay in ABCB1-transfected MDCKII cells; type: cell-based
serum cholesterol = conditions: human, in vivo; cited from earlier work
[1] = type: in vivo, human
[2] = Estimated luminal concentration of efavirenz after oral administration; set-up: species or system human; conditions: after oral administration of 400 mg, dose/250 mL
[3] = rapidly absorbed from the upper intestine; cited from earlier work
OATP1B1 = molecular target: T1, OATP1B1 (Homo sapiens, UniProt Q9Y6L6); type: cell-based; conditions: OATP1B1-transfected HEK293 cells, efavirenz 1–1,000 μmol/l
T1 sequence (Q9Y6L6 1-691): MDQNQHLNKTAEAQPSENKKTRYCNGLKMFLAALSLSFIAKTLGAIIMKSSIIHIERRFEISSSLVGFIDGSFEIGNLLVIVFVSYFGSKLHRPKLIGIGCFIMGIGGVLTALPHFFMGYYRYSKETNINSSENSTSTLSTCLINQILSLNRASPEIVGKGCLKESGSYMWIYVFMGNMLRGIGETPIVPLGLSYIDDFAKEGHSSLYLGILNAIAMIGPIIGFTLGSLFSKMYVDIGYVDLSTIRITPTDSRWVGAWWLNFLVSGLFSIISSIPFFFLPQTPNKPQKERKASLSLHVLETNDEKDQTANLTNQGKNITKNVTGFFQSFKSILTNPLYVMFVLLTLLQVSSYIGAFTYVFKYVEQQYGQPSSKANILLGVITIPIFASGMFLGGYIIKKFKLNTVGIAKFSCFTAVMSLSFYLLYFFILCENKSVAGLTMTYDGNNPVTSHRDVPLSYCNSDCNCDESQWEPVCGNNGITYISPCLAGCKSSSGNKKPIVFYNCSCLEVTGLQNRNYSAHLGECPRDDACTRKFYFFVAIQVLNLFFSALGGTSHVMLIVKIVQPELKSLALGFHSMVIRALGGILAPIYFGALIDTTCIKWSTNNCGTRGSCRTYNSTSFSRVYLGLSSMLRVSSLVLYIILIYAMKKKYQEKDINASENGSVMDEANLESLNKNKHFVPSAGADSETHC

[4] = type: in vivo, human; conditions: for AUC(0-t) / Cmax / AUC0–6 h / AUC0–24 h: serum; for AUC(0-t) / Cmax / CLR (renal clearance) / AUC0–6 h / AUC0–24 h: mean ± SD
serum sterols = experiment: Serum sterol concentrations; type: in vivo, human
[5] = 400 mg efavirenz single dose, second value of the pair (taken as with ezetimibe)
[6] = ezetimibe + efavirenz multiple dose vs ezetimibe alone
[7] = ezetimibe + efavirenz single dose vs ezetimibe alone
[8] = chronic administration of 10 mg ezetimibe, 12 healthy subjects
[9] = steady state 10 mg ezetimibe + 400 mg efavirenz multiple dose
[10] = steady state 10 mg ezetimibe + 400 mg efavirenz single dose
[11] = steady state, 10 mg ezetimibe alone

ABCC2, sequence (Q92887 whole entry): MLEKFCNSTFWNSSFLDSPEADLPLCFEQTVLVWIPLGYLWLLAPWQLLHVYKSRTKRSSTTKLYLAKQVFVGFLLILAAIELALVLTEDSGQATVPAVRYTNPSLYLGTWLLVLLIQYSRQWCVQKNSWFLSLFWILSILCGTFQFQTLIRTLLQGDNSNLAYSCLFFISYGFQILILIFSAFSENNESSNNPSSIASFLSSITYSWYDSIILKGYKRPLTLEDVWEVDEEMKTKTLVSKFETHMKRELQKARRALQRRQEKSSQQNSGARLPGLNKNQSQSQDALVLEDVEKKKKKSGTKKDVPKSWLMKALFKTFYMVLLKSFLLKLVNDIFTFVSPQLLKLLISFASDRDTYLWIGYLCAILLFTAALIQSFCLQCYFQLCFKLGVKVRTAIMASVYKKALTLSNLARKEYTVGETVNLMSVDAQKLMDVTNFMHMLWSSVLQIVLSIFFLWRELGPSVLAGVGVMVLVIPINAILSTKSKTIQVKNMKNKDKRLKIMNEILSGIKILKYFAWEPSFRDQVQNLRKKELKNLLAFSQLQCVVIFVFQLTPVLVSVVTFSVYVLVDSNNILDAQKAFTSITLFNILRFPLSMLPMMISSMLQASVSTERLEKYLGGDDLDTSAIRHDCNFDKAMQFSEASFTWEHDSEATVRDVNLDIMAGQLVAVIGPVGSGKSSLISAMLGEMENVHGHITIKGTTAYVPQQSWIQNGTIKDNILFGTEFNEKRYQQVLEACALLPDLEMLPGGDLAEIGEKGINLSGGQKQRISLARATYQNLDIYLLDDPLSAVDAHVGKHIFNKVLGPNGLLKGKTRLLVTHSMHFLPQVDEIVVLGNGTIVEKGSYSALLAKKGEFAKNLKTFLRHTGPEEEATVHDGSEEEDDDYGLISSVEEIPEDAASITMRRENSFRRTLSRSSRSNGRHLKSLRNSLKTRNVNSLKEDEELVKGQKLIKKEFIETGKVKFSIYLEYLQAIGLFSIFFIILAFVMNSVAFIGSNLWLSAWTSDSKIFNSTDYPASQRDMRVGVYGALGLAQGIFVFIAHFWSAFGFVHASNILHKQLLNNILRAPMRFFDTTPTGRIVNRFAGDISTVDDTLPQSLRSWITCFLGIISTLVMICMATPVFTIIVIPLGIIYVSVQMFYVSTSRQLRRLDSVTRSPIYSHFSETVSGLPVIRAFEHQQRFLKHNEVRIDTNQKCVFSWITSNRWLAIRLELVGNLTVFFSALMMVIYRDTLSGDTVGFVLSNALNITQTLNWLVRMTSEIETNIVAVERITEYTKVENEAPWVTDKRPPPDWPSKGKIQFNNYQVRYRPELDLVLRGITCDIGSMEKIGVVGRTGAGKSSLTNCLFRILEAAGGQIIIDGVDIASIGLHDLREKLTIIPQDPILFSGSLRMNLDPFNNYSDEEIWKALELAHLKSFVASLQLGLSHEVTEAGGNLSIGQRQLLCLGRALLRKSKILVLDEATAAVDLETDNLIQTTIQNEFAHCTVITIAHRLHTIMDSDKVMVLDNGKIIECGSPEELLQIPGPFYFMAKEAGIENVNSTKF
ABCB1, sequence (P08183 whole entry): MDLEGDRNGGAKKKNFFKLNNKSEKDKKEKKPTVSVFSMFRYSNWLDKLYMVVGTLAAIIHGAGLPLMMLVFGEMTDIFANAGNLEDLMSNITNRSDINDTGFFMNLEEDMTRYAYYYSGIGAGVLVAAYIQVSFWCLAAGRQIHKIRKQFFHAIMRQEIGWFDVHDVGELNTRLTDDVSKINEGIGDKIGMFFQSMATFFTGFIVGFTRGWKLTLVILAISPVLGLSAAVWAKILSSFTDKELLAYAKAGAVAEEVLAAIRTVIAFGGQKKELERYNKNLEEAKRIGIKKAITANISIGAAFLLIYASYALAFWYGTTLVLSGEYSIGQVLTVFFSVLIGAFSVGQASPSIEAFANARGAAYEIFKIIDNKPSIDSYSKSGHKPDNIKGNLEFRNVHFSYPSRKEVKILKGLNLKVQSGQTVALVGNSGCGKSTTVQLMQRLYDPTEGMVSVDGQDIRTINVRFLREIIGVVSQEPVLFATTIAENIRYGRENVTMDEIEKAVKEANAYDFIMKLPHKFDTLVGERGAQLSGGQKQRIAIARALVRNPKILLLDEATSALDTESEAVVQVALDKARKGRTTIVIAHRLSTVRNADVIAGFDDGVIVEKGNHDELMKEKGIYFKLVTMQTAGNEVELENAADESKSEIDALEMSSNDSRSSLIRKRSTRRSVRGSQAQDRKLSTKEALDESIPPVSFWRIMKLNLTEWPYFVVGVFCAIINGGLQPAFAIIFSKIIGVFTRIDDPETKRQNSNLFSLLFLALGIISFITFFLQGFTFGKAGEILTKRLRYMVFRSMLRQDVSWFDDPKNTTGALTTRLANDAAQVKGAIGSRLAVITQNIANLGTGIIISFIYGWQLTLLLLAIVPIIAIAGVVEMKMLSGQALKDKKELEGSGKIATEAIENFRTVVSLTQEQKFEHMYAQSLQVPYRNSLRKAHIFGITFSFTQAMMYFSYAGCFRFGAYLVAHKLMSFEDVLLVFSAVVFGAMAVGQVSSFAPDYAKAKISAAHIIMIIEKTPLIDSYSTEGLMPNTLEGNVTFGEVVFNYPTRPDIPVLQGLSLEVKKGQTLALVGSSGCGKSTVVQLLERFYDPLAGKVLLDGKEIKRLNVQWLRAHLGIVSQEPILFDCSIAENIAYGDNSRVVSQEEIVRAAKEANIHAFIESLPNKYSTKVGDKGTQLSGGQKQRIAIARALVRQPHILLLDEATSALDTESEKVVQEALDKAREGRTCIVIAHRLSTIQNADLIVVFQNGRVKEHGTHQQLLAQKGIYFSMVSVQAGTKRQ

O=C1Nc2ccc(Cl)cc2[C@@](C#CC2CC2)(C(F)(F)F)O1 [Efavirenz, efavirenz]
IC50 (ABCC2): 60.3 µM | concentration inhibiting ABCB1 activity to the same extent as PSC833 (10 μmol/l) (ABCB1): 316 µM | HIV-infected patients with increased serum cholesterol levels (serum cholesterol): ~50% | cumulative renal excretion ([1]; 400 mg efavirenz single dose, first value of the pair (taken as alone)): 83.4 ± 26.9 µg | cumulative renal excretion [1, 5]: 88.4 ± 18.8 µg | renal clearance [1, 5]: 0.06 ± 0.03 mL/min | AUC(0-inf) ([1]; human, serum, oral, 400 mg): 27000 ± 12200 ng·h/mL | CL renal ([1]; human, urine and plasma, oral, 400 mg): 0.06 ± 0.03 mL/min | estimated luminal concentration [2]: ~ 5 mmol/l and 5 mmol/l | Tmax [3]: 2 to 3 h | influence on OATP1B1-mediated uptake of bromosulfophthalein (OATP1B1): no influence

O=C1[C@H](CC[C@H](O)c2ccc(F)cc2)[C@@H](c2ccc(O)cc2)N1c1ccc(F)cc1 [Ezetimibe, ezetimibe]
AUC0–6 h Ratio (90% CI) [4, 6]: 1.052 (0.880, 1.256) | AUC0–24 h Ratio (90% CI) [4, 6]: 0.975 (0.850, 1.118) | Cmax Ratio (90% CI) [4, 6]: 0.951 (0.730, 1.240) | AUC0–6 h Ratio (90% CI) [4, 7]: 1.346 (1.201, 1.508) | AUC0–24 h Ratio (90% CI) [4, 7]: 1.146 (1.034, 1.270) | Cmax Ratio (90% CI) [4, 7]: 1.194 (1.031, 1.382) | AUC(0-t) ([4]; human, oral, 10 mg, AUC0–6 h, steady state, 10 mg ezetimibe alone): 13.6 ± 5.5 ng·h/mL | AUC(0-t) ([4]; human, oral, 10 mg, AUC0–24 h, steady state, 10 mg ezetimibe alone, 12 healthy subjects): 51.9 ± 21.7 ng·h/mL | Cmax ([4]; human, oral, 10 mg, Cmax, steady state, 10 mg ezetimibe alone): 4.82 ± 2.74 ng/mL | higher AUC0–6 h ([4]; with single-dose efavirenz vs ezetimibe alone, P = 0.005): 1.4 fold | higher maximum plasma concentration (Cmax) ([4]; with single-dose efavirenz vs ezetimibe alone, P = 0.049): 1.2 fold | lathosterol/cholesterol ratio (marker for endogenous cholesterol synthesis) (serum sterols; after treatment with ezetimibe): significantly increased | reduction of serum concentration of campesterol (serum sterols; [8]): ~ 40% | reduction of serum concentration of sitosterol (serum sterols; [8]): ~ 40% | reduction of total serum cholesterol (serum sterols; [8]): 10–15%

O=C(O)[C@H]1O[C@@H](Oc2ccc([C@@H]3[C@@H](CC[C@H](O)c4ccc(F)cc4)C(=O)N3c3ccc(F)cc3)cc2)[C@H](O)[C@@H](O)[C@@H]1O [Ezetimibe-glucuronide, ezetimibe-glucuronide]
CLR (renal clearance) ([4]; 10 mg ezetimibe + 400 mg efavirenz multiple dose): 21.7 ± 5.91 mL/min | CLR (renal clearance) ([4]; 10 mg ezetimibe + 400 mg efavirenz single dose): 23.3 ± 7.61 mL/min | CLR (renal clearance) ([4]; 10 mg ezetimibe alone, steady state): 24.7 ± 8.77 mL/min | decrease of exposure ([4]; acute and chronic comedication with efavirenz): 12–30% | AUC0–6 h Ratio (90% CI) [4, 6]: 0.691 (0.592, 0.806) | AUC0–24 h Ratio (90% CI) [4, 6]: 0.700 (0.608, 0.806) | Cmax Ratio (90% CI) [4, 6]: 0.606 (0.469, 0.783) | AUC0–6 h Ratio (90% CI) [4, 7]: 0.872 (0.774, 0.982) | AUC0–24 h Ratio (90% CI) [4, 7]: 0.885 (0.809, 0.968) | Cmax Ratio (90% CI) [4, 7]: 0.776 (0.625, 0.963) | reduction of urinary excretion ([4]; multiple doses of efavirenz, unchanged renal clearance, P = 0.003): 35% | diminished serum AUC ([4]; pretreatment with multiple doses of efavirenz, P = 0.005): ~30% | diminished serum Cmax ([4]; pretreatment with multiple doses of efavirenz, P = 0.012): about 43% | AUC0–6 h [4, 9]: 141 ± 58 ng·h/mL | AUC0–24 h [4, 9]: 325 ± 152 ng·h/mL | Cmax [4, 9]: 45.3 ± 14.6 ng/mL | AUC0–6 h [4, 10]: 182 ± 87 ng·h/mL | AUC0–24 h [4, 10]: 411 ± 195 ng·h/mL | Cmax [4, 10]: 60.9 ± 29.5 ng/mL | AUC0–24 h ([4]; steady state, 10 mg ezetimibe alone, 12 healthy subjects): 466 ± 223 ng·h/mL | AUC0–6 h [4, 11]: 205 ± 90 ng·h/mL | Cmax [4, 11]: 78.9 ± 43.1 ng/mL
